Test results published in ChEMBL document CHEMBL5244201, “Non-covalent albumin-binding ligands for extending the circulating half-life of small biotherapeutics” (Medchemcomm, 2019).

How the values were obtained:
[1] = target: T1, Albumin (Mus musculus, UniProt P07724); test: Binding affinity to mouse albumin
[2] = target: T2, Albumin (Homo sapiens, UniProt P02768); test: Binding affinity to human albumin
[3] = Terminal half life in iv dosed mouse; assay type: ADME, organism-based; conditions: in vivo, read-out: beta t1/2 (converted)
[4] = target: T2, Albumin; test: Binding affinity to human albumin assessed as dissociation constant
[5] = organism: Macaca fascicularis; test: Terminal half life in monkey; conditions: cynomolgus monkey, in vivo; read-out: beta t1/2 (converted)
[6] = target: T2, Albumin; test: Binding affinity to human albumin assessed as dissociation constant by ITC method
[7] = target: T2, Albumin; test: Binding affinity to human albumin assessed as dissociation constant by fluorescence polarization assay
[8] = target: T1, Albumin; test: Binding affinity to mouse albumin assessed as dissociation constant by fluorescence polarization assay
[9] = target: T2, Albumin; test: Binding affinity to human serum albumin by fluorescence polarization assay

T2 sequence (P02768 whole entry): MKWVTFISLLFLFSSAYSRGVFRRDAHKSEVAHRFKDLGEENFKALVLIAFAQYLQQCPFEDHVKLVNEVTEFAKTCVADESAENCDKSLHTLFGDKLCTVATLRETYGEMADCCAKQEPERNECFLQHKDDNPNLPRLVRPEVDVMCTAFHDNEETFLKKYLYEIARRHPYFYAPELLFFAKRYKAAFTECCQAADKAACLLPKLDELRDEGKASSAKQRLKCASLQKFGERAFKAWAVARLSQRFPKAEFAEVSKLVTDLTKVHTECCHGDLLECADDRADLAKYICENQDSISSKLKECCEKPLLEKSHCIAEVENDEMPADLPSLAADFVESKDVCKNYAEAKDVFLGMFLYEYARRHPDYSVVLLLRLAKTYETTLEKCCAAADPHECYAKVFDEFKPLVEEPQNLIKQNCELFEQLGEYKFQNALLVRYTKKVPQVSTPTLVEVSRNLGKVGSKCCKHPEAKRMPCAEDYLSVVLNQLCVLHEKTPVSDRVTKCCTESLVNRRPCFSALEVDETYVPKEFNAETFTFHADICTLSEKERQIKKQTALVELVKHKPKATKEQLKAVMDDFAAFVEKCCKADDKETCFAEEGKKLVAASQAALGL
T1 sequence (P07724 whole entry): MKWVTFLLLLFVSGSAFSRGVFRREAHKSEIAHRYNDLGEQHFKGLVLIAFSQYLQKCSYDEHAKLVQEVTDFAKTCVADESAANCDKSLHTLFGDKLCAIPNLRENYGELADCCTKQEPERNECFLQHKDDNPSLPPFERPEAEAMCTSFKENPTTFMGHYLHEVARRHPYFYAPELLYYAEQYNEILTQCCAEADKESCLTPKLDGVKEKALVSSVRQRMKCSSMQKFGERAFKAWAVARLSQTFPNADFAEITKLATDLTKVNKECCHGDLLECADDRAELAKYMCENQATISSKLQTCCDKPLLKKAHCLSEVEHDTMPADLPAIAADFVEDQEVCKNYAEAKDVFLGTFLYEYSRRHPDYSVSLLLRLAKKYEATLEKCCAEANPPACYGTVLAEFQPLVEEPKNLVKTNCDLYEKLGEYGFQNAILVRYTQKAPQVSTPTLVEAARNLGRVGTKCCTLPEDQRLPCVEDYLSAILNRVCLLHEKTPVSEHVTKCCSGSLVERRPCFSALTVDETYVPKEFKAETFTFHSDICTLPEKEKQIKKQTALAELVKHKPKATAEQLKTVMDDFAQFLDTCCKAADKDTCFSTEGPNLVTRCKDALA

## O=C(CCCc1ccc(I)cc1)NCCCCC(NC(=O)c1ccc2c(c1)C(=O)OC21c2ccc(O)cc2Oc2cc(O)ccc21)C(=O)O (stereo not given)
[1]
  Kd: 3.6 µM
[2]
  Kd: 3.2 µM
[3]
  half-life: 16.6 h

## Ac-WWEQDRDWDFDVFGGGTP-NH2
[4]
  Kd: 0.015 µM
[5]
  half-life: 31.2 h

## O=C(CCCc1ccc(I)cc1)NCCCC[C@@H](NC(=O)c1ccc(-c2c3ccc(=O)cc-3oc3cc(O)ccc23)c(C(=O)O)c1)C(=O)O
[6]
  Kd: 0.33 µM
[7]
  Kd: 0.108 µM
[8]
  Kd: 0.118 µM
[3]
  half-life: 8.25 h

## Cc1cccc(OCc2cn(CCCC[C@@H]3NC(=O)CNC(=O)[C@@H]4CCCN4C(=O)[C@H](CCCCNC(=O)c4cnc(N5CCOCC5)c(N)c4)NC(=O)[C@H](CCCCNC(=S)Nc4ccc5c(c4)C(=O)OC54c5ccc(O)cc5Oc5cc(O)ccc54)NC(=O)[C@H](C)NC(=O)CNC(=O)[C@@H]4CCCN4C(=O)[C@H](CCCCNC(=O)c4cccc(Oc5ccccc5)c4)NC(=O)[C@H](C)NC3=O)nn2)n1
[9]
  Kd: 6.6 µM
